In US8604055B2, “Substituted benzylamino quinolines as cholesterol ester-transfer protein inhibitors” (Dr. Reddy's Laboratories Ltd., priority 2004, dated 2013):

How the values were obtained:
Recombinant CETP enzyme = target: T1, Recombinant CETP enzyme (Homo sapiens, UniProt P11597); assay: In vitro fluorescence-based CETP inhibition assay (BODIPY-CE transfer from donor to acceptor microemulsions); type: biochemical; conditions: recombinant CETP 0.14 ng/μl; transfer of fluorescent cholesteryl ester monitored over 2 hours; vs DMSO controls
T1 construct: purchased Cardiovascular Targets
T1 sequence (P11597 18-493): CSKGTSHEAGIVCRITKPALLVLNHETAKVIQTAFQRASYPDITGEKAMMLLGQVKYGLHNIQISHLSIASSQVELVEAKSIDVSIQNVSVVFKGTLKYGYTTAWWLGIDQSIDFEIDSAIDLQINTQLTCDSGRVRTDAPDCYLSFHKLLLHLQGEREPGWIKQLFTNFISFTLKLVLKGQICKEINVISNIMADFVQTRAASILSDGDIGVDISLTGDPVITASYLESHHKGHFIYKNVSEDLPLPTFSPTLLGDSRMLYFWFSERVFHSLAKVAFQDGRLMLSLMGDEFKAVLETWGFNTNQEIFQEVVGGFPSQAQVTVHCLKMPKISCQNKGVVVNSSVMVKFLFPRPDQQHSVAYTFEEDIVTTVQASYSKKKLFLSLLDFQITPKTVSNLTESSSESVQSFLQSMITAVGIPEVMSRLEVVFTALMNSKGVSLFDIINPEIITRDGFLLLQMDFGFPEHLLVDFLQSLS
Experimental: An in vitro fluorescence-based assay to identify CETP inhibitors was developed from modifications of the protocols outlined in Bisgaier et al., J Lipid Res., 34(9): 1625-34 (1993) and Epps et al., Chem Phys Lipids., 77(1): 51-63 (1995). Acceptor and donor lipid microemulsions were prepared according to Bisgaier et al., 1993, except that the buffer was prepared with 0.67 ug/mL human HDL (Calbiochem). Donor microemulsions contained the fluorescent cholesteryl ester analog BODIPY-CE (Molecular Probes), characterized by excitation and emission maxima at 503 nm and 518 nm, respectively. The CETP-mediated transfer of fluorescent cholesteryl ester to acceptor particles was monitored over a 2-hour time period using the FAM filter set (excitation 492 nm, emission 516 nm) in an MX3000P fluorescent plate reader (Stratagene). Recombinant CETP enzyme (Cardiovascular Targets) was used at 0.14 ng/μl, final concentration, to achieve lipid transfer. CETP inhibition by compounds was compared to DMSO controlsand graphed as a percentage of the control CETP activity over 2 hours. The IC50 curves for CETP inhibition were generated from the activity profiles. Active compounds were also tested for CETP inhibition as above, but in the presence of 3% human serum albumin, fraction V (Calbiochem).

Compound	IC50 (Recombinant CETP enzyme) [nM]	melting point [°C]
Cc1nn(C)c2nc(N(CC3CCC3)CC3CC3)c(CN(Cc3cc(C(F)(F)F)cc(C(F)(F)F)c3)c3nnn(C)n3)cc12 [Example 5, (5-{[(3,5-bis-trifluoromethyl-benzyl)-(2-methyl-2H-tetrazole-5-yl)-amino]-methyl}-1,3-dimethyl-1H-pyrazolo[3,4-b]pyridin-6-yl)-cyclobutylmethyl-cyclopropylmethyl-amine]	≤ 1000	84 to 85
CCN(CC(C)(C)C)c1nc2c(cc1CN(Cc1cc(C(F)(F)F)cc(C(F)(F)F)c1)c1nnn(C)n1)c(C)nn2C [Example 6, (5-{[(3,5-bis-trifluoromethyl-benzyl)-(2-methyl-2H-tetrazole-5-yl)-amino]-methyl}-1,3-dimethyl-1H-pyrazolo[3,4-b]pyridin-6-yl)-(2,2-dimethyl-propyl)-ethyl-amine]	≤ 1000	72 to 73
CCN(c1nc2c(cc1CN(Cc1cc(C(F)(F)F)cc(C(F)(F)F)c1)c1nnn(C)n1)c(C)nn2C)C1CCCC1 [Example 8, (5-{[(3,5-bis-trifluoromethyl-benzyl)-(2-methyl-2H-tetrazole-5-yl)-amino]-methyl}-1,3-dimethyl-1H-pyrazolo[3,4-b]pyridin-6-yl)-cyclopentyl-ethyl-amine]	≤ 1000	43 to 44
CCN(CC1CCC1)c1nc2c(cnn2CC)cc1CN(Cc1cc(C(F)(F)F)cc(C(F)(F)F)c1)c1nnn(C)n1 [Example 15, (5-{[(3,5-bis-trifluoromethyl-benzyl)-(2-methyl-2H-tetrazol-5-yl)-amino]-methyl}-1-ethyl-1H-pyrazolo[3,4-b]-yridin-6-yl)-cyclobutylmethyl-ethyl-amine]	≤ 1000	76 to 77
CCN(CC1CCCC1)c1nc2c(cc1CN(Cc1cc(C(F)(F)F)cc(C(F)(F)F)c1)c1nc(C(F)(F)F)co1)c(C)nn2C [Example 22, (5-{[(3,5-bis-trifluoromethyl-benzyl)-(4-trifluoromethyl-oxazol-2-yl)-amino]-methyl}-1,3-dimethyl-1H-pyrazolo[3,4-b]-pyridin-6-yl)-cyclopentylmethyl-ethyl-amine]	≤ 1000	139
CCN(CC1CCCC1)c1nc2ccccc2cc1CN(Cc1cc(C(F)(F)F)cc(C(F)(F)F)c1)c1nnn(C)n1 [Example 52]	≤ 1000	97
CCN(CC1CCCC1)c1nc2ccccc2cc1CN(Cc1cc(C(F)(F)F)cc(C(F)(F)F)c1)c1nnnn1C [Example 53, (3-{[(3,5-bis-trifluoromethyl-benzyl)-(1-methyl-1H-tetrazol-5-yl)-amino]-methyl}-quinolin-2-yl)-cyclopentylmethyl-ethyl-amine]	≤ 5000	110
Cc1cccc2cc(CN(Cc3cc(C(F)(F)F)cc(C(F)(F)F)c3)c3nnn(C)n3)c(N(CC3CC3)CC3CC3)nc12 [Example 57]	≤ 1000	63
CCN(CC1CCCC1)c1nc2ccccc2cc1CN(Cc1cc(C(F)(F)F)cc(C(F)(F)F)c1)c1nnc(C)o1 [Example 58, (3-{[(3,5-bis-trifluoromethyl-benzyl)-(5-methyl-[1,3,4]oxodiazol-2-yl)-amino]-methyl)-quinolin-2-yl)-cyclopentylmethyl-ethyl-amine]	≤ 5000	126 to 127
CCN(CC1CCCC1)c1nc2ccccc2cc1CN(Cc1cc(C(F)(F)F)cc(C(F)(F)F)c1)C(N)=O [Example 59, 1-(3,5 bistrifluoromethyl-benzyl)-1-[(2-cyclopentylmethyl-ethyl-amino)-quinoline-3-ylmethyl]-urea]	≤ 5000	92 to 94
CCOC(=N)N(Cc1cc(C(F)(F)F)cc(C(F)(F)F)c1)Cc1cc2ccccc2nc1N(CC)CC1CCCC1 [Example 61]	≤ 5000	158 to 160
CCN(CC1CCCC1)c1nc2ccccc2cc1CN(Cc1cc(C(F)(F)F)cc(C(F)(F)F)c1)C(N)=S [Example 62, 1-(3,5-bis-trifluoromethyl-benzyl)-1-[2-(cyclopentylmethyl-ethyl-amino)-quinolin-3-ylmethyl]-thiourea]	–	98

Results, then the compound that gave them:

IC50 (Recombinant CETP enzyme) [nM]	melting point [°C]	Compound
–	123 to 124	Cc1cccc2cc(CN(Cc3cc(C(F)(F)F)cc(C(F)(F)F)c3)c3ncc(N4CCOCC4)cn3)c(N(CC3CC3)CC3CC3)nc12 [Example 106, (3-{[(3,5-bis-trifluoromethyl-benzyl)-(5-morpholin-4-yl-pyrimidin-2-yl)-amino]-methyl}-8-methyl-quinolin-2-yl)-bis-cyclopropylmethyl-amine]
≤ 1000	–	Cc1cccc2cc(CN(Cc3cc(C(F)(F)F)cc(C(F)(F)F)c3)c3ncnc(Cl)n3)c(N(CC3CC3)CC3CC3)nc12 [Example 117, (3-{[(3,5-bis-trifluoromethyl-benzyl)-(4-chloro-[1,3,5]triazin-2-yl)-amino]-methyl}-8-methyl-quinolin-2-yl)-bis-cyclopropylmethyl-amine]
–	83	CCOC(=O)c1c(CN(Cc2cc(C(F)(F)F)cc(C(F)(F)F)c2)c2nnn(C)n2)c2ccccc2n1C [Example 125, 3-{[(3,5-bis-trifluoromethyl-benzyl)-(2-methyl-2H-tetrazol-5-yl)-amino]-methyl}-1-methyl-1H-indole-2-carboxylic acid ethyl ester]
≤ 1000	–	CCOC(=O)c1c(CN(Cc2cc(C(F)(F)F)cc(C(F)(F)F)c2)c2nnn(C)n2)c2ccccc2n1C(=O)C1CCCC1 [Example 127, 3-{[(3,5-bis-trifluoromethyl-benzyl)-(2-methyl-2H-tetrazol-5-yl)-amino]-methyl}-1-cyclopentanecarbonyl-1H-indole-2-carboxylic acid ethyl ester]
–	42	CCCSc1nc2c(C)cccc2cc1CN(Cc1cc(C(F)(F)F)cc(C(F)(F)F)c1)C(=O)OCC [Example 135, (3,5-bis-trifluoromethyl-benzyl)-(8-methyl-2-propylsulfanyl-quinolin-3-ylmethyl)-carbamic acid ethyl ester]
–	98	CCCS(=O)(=O)c1nc2c(C)cccc2cc1CN(Cc1cc(C(F)(F)F)cc(C(F)(F)F)c1)C(=O)OCC [Example 136, (3,5-bis-trifluoromethyl-benzyl)-[8-methyl-2-(propane-1-sulfonyl)-quinolin-3-ylmethyl]-carbamic acid ethyl ester]
–	86	CCC[S+]([O-])c1nc2c(C)cccc2cc1CN(Cc1cc(C(F)(F)F)cc(C(F)(F)F)c1)C(=O)OCC (stereo not drawn) [Example 137, (3,5-bis-trifluoromethyl-benzyl)-[8-methyl-2-(propane-1-sulfinyl)-quinolin-3-ylmethyl]-carbamic acid ethyl ester]
